# Data as given in patent US20260207604A1, “COMPOUND AND USE THEREOF” (ONQUALITY PHARMACEUTICALS CHINA LTD., priority 2022, published 2026).
# Like-named read-outs stand apart in the source and are kept apart here.
# Key:
# [1] = target: CDK2/cyclin E (Homo sapiens, UniProt P24941); assay: KinaseProfile radiometric protein kinase assay, CDK2/cyclin E; assay type: biochemical
# Procedure: (§1) The KinaseProfile radiometric protein kinase assay was used to evaluate the inhibitory activity of the compounds against CDK2/cyclin E, CDK4/cyclin D, CDK6/cyclin D, CDK7/cyclin H and CDK9/cyclin T.
# (§2) The compounds were prepared in 100% DMSO at a final 50× stock concentration. The working stock solution was added as the first component to the assay wells. CDK2/cyclin E, CDK4/cyclin D, CDK6/cyclin D, CDK7/cyclin H, and CDK9/cyclin T were added in their respective kinase buffers: (CDK4: 8 mM MOPS pH 7.0, 0.2 mM EDTA, 0.03% BSA, 0.03% Tween 20, 20 mM DTT, and 0.2 mg/ml Rb fragment, 10 mM Magnesium acetate; CDK2, CDK6: 8 mM MOPS pH 7.0, 0.2 mM EDTA, 0.1 mg/mL histone H1, 10 mM Magnesium acetate; CDK7: 8 mM MOPS pH 7.0, 0.2 mM EDTA, 500 μM peptide, 10 mM Magnesium acetate; CDK9: 8 mM MOPS pH 7.0, 0.2 mM EDTA, 100 μM […], 10 mM Magnesium acetate) and [γ-^33 P-ATP] was included in the reaction mixture. The reaction was initiated by the addition of the Mg/ATP mixture and incubated at room temperature for 40 minutes. The reaction was terminated by the addition of 0.5% phosphoric acid. Then, 10 μL of the reaction mixture was spotted onto P30 filter pads, washed four times (1 minute each) with 0.425% phosphoric acid, followed by a single wash with methanol. The pads were then dried and counted. The data were recorded, inhibition rates were calculated, and IC50 values were determined accordingly. Table 2 summarizes the in vitro enzymatic inhibitory activity of the compounds of the present application.
# [2] = target: CDK6/cyclin D (Homo sapiens, UniProt Q00534); assay: KinaseProfile radiometric protein kinase assay, CDK6/cyclin D; assay type: biochemical
# Procedure: as §1, §2
# [3] = target: CDK7/cyclin H (Homo sapiens, UniProt P50613); assay: KinaseProfile radiometric protein kinase assay, CDK7/cyclin H; assay type: biochemical
# Procedure: as §1, §2
# [4] = target: CDK9/cyclin T (Homo sapiens, UniProt P50750); assay: KinaseProfile radiometric protein kinase assay, CDK9/cyclin T; assay type: biochemical
# Procedure: as §1, §2
# [5] = system: MCF-7 human breast cancer cells; assay: Cell viability assay (CELLTITER-GLO); assay type: cell-based; conditions: MCF7, 168 h, MCF-7 cells, 7 days
# Procedure: The cell viability of MCF-7 human breast cancer cells under standard culture conditions was assessed using the CELLTITER-GLO assay. MCF-7 cells were seeded at 3,000 cells per well in 96-well plates and incubated overnight in a CO2 incubator. The next day, serial dilutions of Compound 1 at various concentrations were added to the wells. The plates were returned to the incubator and cultured for 7 days. After 7 days, the plates were equilibrated at room temperature for 30 minutes. Subsequently, 100 μL of CELLTITER-GLO detection solution was added. The cells were mixed on an orbital shaker for 5 min and then incubated for additional 10 min. The plate was read with an ENVISION reader. Data were processed and analyzed to determine the IC50 values.
# [6] = system: 5-FU-induced diarrhea model; assay: 5-FU-induced diarrhea model, 5-FU 1-day model; assay type: in vivo, Balb/c mice; conditions: 5-FU 175 mg/kg once a day, mice
# Source text: (§3) The 5-FU-induced diarrhea model was used as an experimental model of the present invention to evaluate the in vivo activity of the compounds.
# Balb/c mice (20-25 g, 7-8 weeks old, Jihui) were acclimated for one week and then randomly assigned to 3 groups (n=10 per group): control group, 5-FU group, and CDK inhibitor group. The control group received the same vehicle as the CDK inhibitor group by oral gavage, followed by injection of the same vehicle as the 5-FU group. The 5-FU group received the same vehicle by oral gavage as the CDK inhibitor group, followed by 5-FU injection. The CDK inhibitor group received oral administration of the CDK inhibitor, followed by 5-FU injection. From day 1 to day 7, the severity of diarrhea was assessed for each mouse according to the diarrhea scoring system.
# (§4) The diarrhea scoring system was based on the method by Akinobu Kurita (Cancer Chemother Pharmacol 2000; 46:211-20), Grade 0: normal stool; Grade 1: mild diarrhea, slightly soft stool and wet stool; Grade 2: moderate diarrhea, loose stool with slight perianal staining; Grade 3: severe diarrhea, loose watery stool with severe perianal staining.
# (§5) The diarrhea relief rate (%) was calculated as follows: […]
# [7] = system: 5-FU-induced diarrhea model; assay: 5-FU-induced diarrhea model, 5-FU 3-day model; assay type: in vivo, Balb/c mice; conditions: 5-FU 60 mg/kg once a day for 3 days, mice
# Procedure: as §3
# Balb/c mice (20-25 g, 7-8 weeks old, Jihui) were acclimated for one week and then randomly assigned to 3 groups (n=10 per group): control group, 5-FU group, and CDK inhibitor group. […] […] […] From Day 1 to Day 7, diarrhea severity was assessed daily for each mouse according to the diarrhea scoring system.
# as §4, §5
# [8] = system: Irinotecan-induced diarrhea model; assay: Irinotecan-induced diarrhea model; assay type: in vivo, Balb/c mice; conditions: irinotecan 230 mg/kg once a day, 1 day, mice
# Source text: Irinotecan-induced diarrhea and/or constipation models were employed as additional in vivo experimental models to evaluate the activity of the compounds of the present application.
# Balb/c mice (20-25 g, 7-8 weeks old, Jihui) were acclimated for one week and then randomly assigned to 3 groups (n=10 per group): control group, irinotecan group, and CDK inhibitor group. Control group: received the same vehicle as the CDK inhibitor group by oral gavage, followed by injection of the same vehicle as the irinotecan group; irinotecan group: received the same vehicle by oral gavage as the CDK inhibitor group, followed by injection of irinotecan; CDK inhibitor group: received oral administration of the CDK inhibitor, followed by injection of irinotecan.
# In the irinotecan group, approximately 6 to 9 out of 10 mice developed diarrhea. From Day 1 to Day 7, the severity of diarrhea in each mouse was evaluated using the following scoring criteria:
# as §4, with “staining. Calculate the diarrhea Relief rate of compound treatment. Relief rate (%)=(diarrhea score of irinotecan group−diarrhea score of CDK inhibitor group)/diarrhea score of irinotecan group×100%.” for “staining.”
# [9] = 10 mg/kg oral twice a day for 3.5 days
# [10] = 25 mg/kg oral twice a day for 3 days
# [11] = 50 mg/kg oral twice a day for 3 days
# [12] = 100 mg/kg oral twice a day for 3 days
# [13] = 100 mg/kg oral twice a day for 3.5 days
# [14] = 5 mg/kg oral, 4 hours before and 8 hours after irinotecan
# [15] = 25 mg/kg oral, 6 hours before and 6 hours after irinotecan
# [16] = 50 mg/kg oral, 4 hours before and 8 hours after irinotecan
# [17] = 100 mg/kg oral, 6 hours before and 6 hours after irinotecan
# [18] = 25 mg/kg oral, 8 hours before 5-FU and 4 hours after 5-FU
# [19] = 10 mg/kg oral twice a day for 3 days
# Chain of CDK9/cyclin T (P50750 whole entry): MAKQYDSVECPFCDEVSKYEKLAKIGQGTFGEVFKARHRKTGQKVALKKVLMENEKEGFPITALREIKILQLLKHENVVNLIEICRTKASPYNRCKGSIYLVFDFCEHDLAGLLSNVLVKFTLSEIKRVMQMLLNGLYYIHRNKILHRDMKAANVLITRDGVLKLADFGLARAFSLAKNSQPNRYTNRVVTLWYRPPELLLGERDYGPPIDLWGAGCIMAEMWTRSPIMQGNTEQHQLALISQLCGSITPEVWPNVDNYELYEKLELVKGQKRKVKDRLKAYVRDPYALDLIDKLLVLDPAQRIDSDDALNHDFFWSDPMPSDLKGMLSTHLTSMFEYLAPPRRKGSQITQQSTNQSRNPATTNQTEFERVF
# Chain of CDK9/cyclin T (O60563 whole entry partner): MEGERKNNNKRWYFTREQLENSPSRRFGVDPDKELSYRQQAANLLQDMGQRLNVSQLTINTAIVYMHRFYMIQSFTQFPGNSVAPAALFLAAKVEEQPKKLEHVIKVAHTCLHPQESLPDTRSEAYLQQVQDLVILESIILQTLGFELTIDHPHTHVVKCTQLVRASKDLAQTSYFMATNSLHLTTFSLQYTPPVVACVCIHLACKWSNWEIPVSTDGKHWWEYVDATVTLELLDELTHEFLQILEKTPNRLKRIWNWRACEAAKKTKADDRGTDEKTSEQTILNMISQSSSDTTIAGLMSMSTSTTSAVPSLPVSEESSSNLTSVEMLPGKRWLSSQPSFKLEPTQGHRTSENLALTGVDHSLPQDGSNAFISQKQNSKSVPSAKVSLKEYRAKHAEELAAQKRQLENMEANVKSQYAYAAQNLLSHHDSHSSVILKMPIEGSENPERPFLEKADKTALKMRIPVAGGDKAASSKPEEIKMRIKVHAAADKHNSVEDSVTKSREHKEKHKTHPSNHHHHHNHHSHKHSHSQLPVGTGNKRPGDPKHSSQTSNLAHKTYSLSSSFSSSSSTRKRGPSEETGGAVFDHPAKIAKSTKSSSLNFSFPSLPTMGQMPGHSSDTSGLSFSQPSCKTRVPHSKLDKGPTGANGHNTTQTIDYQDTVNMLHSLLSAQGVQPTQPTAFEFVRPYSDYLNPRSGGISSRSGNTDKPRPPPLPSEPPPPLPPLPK
# Chain of CDK7/cyclin H (P50613 whole entry): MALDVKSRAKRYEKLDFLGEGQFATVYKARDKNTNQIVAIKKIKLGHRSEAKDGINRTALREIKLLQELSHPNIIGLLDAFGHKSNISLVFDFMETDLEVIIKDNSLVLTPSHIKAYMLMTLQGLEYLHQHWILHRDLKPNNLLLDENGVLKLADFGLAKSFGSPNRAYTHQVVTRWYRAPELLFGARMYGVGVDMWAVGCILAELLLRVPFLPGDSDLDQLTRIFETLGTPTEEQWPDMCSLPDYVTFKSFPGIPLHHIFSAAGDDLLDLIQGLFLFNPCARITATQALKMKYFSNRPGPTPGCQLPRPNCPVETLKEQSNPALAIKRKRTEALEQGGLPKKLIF
# Chain of CDK7/cyclin H (P51946 whole entry partner): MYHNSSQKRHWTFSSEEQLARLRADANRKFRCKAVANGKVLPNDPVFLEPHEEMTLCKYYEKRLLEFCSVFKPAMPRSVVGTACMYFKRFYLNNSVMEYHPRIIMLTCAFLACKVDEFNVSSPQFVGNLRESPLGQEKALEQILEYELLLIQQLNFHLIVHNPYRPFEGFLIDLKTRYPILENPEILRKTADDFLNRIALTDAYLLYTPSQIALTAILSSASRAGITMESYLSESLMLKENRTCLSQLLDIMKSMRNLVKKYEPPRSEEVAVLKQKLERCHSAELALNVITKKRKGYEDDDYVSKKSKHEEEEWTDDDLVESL
# Chain of CDK7/cyclin H (P51948 whole entry partner): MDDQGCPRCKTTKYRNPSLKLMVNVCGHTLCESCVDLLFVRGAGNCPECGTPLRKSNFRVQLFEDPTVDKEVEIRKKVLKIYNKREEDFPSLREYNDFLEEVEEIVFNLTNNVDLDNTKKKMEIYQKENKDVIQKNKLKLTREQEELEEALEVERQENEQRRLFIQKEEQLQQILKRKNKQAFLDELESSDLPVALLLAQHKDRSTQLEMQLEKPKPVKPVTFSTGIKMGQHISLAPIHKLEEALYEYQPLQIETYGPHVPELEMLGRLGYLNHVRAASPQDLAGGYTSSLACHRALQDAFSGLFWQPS
# Chain of CDK6/cyclin D (Q00534 whole entry): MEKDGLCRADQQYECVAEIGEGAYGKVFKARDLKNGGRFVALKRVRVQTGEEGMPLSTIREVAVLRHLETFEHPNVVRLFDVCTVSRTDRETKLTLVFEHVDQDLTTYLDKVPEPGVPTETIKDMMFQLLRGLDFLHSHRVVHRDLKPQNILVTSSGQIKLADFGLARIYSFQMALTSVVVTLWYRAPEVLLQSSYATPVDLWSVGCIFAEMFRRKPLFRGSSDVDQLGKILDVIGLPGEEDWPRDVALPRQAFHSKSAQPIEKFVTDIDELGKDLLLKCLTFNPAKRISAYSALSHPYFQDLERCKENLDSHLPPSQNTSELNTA
# Chain of CDK6/cyclin D (P30281 whole entry partner): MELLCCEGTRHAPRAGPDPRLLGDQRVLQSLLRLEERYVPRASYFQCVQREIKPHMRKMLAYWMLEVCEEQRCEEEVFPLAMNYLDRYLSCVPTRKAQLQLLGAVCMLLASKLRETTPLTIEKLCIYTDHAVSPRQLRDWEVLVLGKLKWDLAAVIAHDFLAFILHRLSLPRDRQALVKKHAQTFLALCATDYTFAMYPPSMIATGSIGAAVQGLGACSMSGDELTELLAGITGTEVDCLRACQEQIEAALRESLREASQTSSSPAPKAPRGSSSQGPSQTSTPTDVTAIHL
IC50 [1] [µM],IC50 [2] [µM],IC50 [3] [µM],IC50 [4] [µM],IC50 ([5]; read-out: Absolute IC 50) [µM],IC50 ([5]; read-out: Relative IC 50) [µM],SMILES,"diarrhea relief rate [7, 9] [%]","diarrhea relief rate [7, 10] [%]","diarrhea relief rate [7, 11] [%]","diarrhea relief rate [7, 12] [%]","diarrhea relief rate [7, 13] [%]","diarrhea relief rate [8, 14] [%]","diarrhea relief rate [8, 15] [%]","diarrhea relief rate [8, 16] [%]","diarrhea relief rate [8, 17] [%]","diarrhea relief rate [6, 18] [%]","diarrhea relief rate [7, 19] [%]",further results
> 10,< 0.05,> 3,> 1,< 0.5,< 1,CC(=O)c1c(C)c2cnc(Nc3ccc(N4CCN(S(=O)(=O)NCC(C)(C)N)CC4)cn3)nc2n(C2CCCC2)c1=O [Compound 2],–,40,60,–,50,–,60,–,–,60,25,"diarrhea relief rate ([6]; 25 mg/kg oral, 12 hours before and 12 hours after 5-FU): 40%; diarrhea relief rate ([6]; 50 mg/kg oral, 6 hours before and 6 hours after 5-FU): 60%; diarrhea relief rate ([6]; 100 mg/kg oral, 24 hours before 5-FU and 0 hours after 5-FU): 40%; diarrhea relief rate ([7]; 25 mg/kg oral twice a day for 3.5 days): 50%; diarrhea relief rate ([7]; 50 mg/kg oral twice a day for 4 days): 40%; diarrhea relief rate ([8]; 25 mg/kg oral, 4 hours before and 8 hours after irinotecan): 70%; diarrhea relief rate ([8]; 50 mg/kg oral, 8 hours before irinotecan and 4 hours after irinotecan): 75%; diarrhea relief rate ([8]; 100 mg/kg oral, 12 hours before irinotecan): 50%"
> 10,< 0.1,> 10,> 3,< 10,< 5,CC(=O)c1c(C)c2cnc(Nc3ccc(N4CCN(S(=O)(=O)NCC(C)N)CC4)cn3)nc2n(C2CCCC2)c1=O (stereo not shown) [Compound 3],40,–,40,70,–,25,–,70,50,60,30,"diarrhea relief rate ([6]; 10 mg/kg oral, 10 hours before 5-FU and 2 hours after 5-FU): 50%; diarrhea relief rate ([6]; 25 mg/kg oral, 2 hours before 5-FU and 10 hours after 5-FU): 40%; diarrhea relief rate ([6]; 150 mg/kg oral, 12 hours before 5-FU and 0 hours after 5-FU): 50%; diarrhea relief rate ([7]; 5 mg/kg oral twice a day for 4 days): 25%; diarrhea relief rate ([7]; 50 mg/kg oral twice a day for 3.5 days): 40%; diarrhea relief rate ([8]; 25 mg/kg oral, 10 hours before and 2 hours after irinotecan): 60%"

SMILES,IC50 [1] [µM],IC50 [2] [µM],IC50 [3] [µM],IC50 [4] [µM],IC50 ([5]; read-out: Absolute IC 50) [µM],IC50 ([5]; read-out: Relative IC 50) [µM],"diarrhea relief rate [7, 9] [%]","diarrhea relief rate [7, 10] [%]","diarrhea relief rate [7, 11] [%]","diarrhea relief rate [7, 12] [%]","diarrhea relief rate [7, 13] [%]","diarrhea relief rate [8, 14] [%]","diarrhea relief rate [8, 15] [%]","diarrhea relief rate [8, 16] [%]","diarrhea relief rate [8, 17] [%]","diarrhea relief rate [6, 18] [%]","diarrhea relief rate [7, 19] [%]",further results
CC(=O)c1c(C)c2c(n(C3CCCC3)c1=O)=NC(Nc1ccc(N3CCN(S(=O)(=O)NCCN)CC3)cn1)NC=2 (stereo not shown) [Compound 1],> 10,< 0.05,> 10,> 1,< 1,< 1,40,60,40,50,40,30,50,37.5,20,–,–,"diarrhea relief rate ([6]; 5 mg/kg oral, 8 hours before 5-FU and 4 hours after 5-FU): 50%; diarrhea relief rate ([6]; 10 mg/kg oral, 6 hours before and 6 hours after 5-FU): 40%; diarrhea relief rate ([6]; 25 mg/kg oral, 12 hours before 5-FU): 85%; diarrhea relief rate ([6]; 50 mg/kg oral, 8 hours before 5-FU and 4 hours after 5-FU): 60%; diarrhea relief rate ([6]; 75 mg/kg oral, 6 hours before and 6 hours after 5-FU): 50%; diarrhea relief rate ([6]; 100 mg/kg oral, 8 hours before 5-FU and 4 hours after 5-FU): 75%; diarrhea relief rate ([7]; 75 mg/kg oral twice a day for 4 days): 55%; diarrhea relief rate ([8]; 10 mg/kg oral, 6 hours before and 6 hours after irinotecan): 33.3%; diarrhea relief rate ([8]; 100 mg/kg oral, 4 hours before and 8 hours after irinotecan): 30%"
